Where two headings read alike, the source gives them in different places.
Tests used:
[1] = system: Wistar rats; assay: Antiphlogistic activity, carrageenin paw edema; type: in vivo, rat (Wistar); conditions: Rattus norvegicus, po, 3 h
Procedure: Each test compound of this invention was administered orally to Wistar rats of about 300 g body weight, and 30 minutes later 0.05 ml of a 1% carrageenin solution was injected into a paw of each rat.

[2] = system: SD male rats; assay: Antipyretic activity, dry yeast-induced fever; type: in vivo, rat (SD male); conditions: Rattus norvegicus, po, p.o.
Procedure: A 2% suspension of dry yeast was injected subcutaneously to SD male rats of 250 to 300 g body weight in an amount of 2 ml/animal to cause a fever, and 4 hours later, the compounds of this invention and control drugs were administered orally. The rectal temperature of each rat was measured periodically, and the dosage of each compound required to reduce the fever by more than 1° C. at the peak of its activity was determined.

[3] = Acute toxicity in rats; design: species or system rat (SD male); conditions: rat, in vivo, po
Procedure: (§1) Ten mice were used for each dose and morality was determined for 3 days after administration of each test compound of the invention. In the case of the rats, 5 rats were used for each dose and morality was determined 7 days after administrations.

[4] = Acute toxicity in mice; design: species or system mouse (ddy male); conditions: mouse, in vivo, po
Procedure: as §1

[5] = system: ddy-strain male mice; assay: Analgesic activity, acetic acid writhing method; type: in vivo, mouse (ddy-strain male); conditions: p.o.; for Analgesic activity ED50: acetic acid writhing
Procedure: (a) Acetic acid writhing method^1
A 0.7% acetic acid solution was injected intraperitoneally to ddy-strain male mice (20 to 25 g) in an amount of 0.1 ml per 10 g mouse body weight to cause a writhing syndrome typified by stretching of the hind legs. The inhibitory action of each test compound against said symptom was observed as a measure of the analgesic activity of the compound. In the tests, each of the compounds of this invention and each of the control drugs listed below were administered orally to each test animal, and 50 minutes later said acetic acid solution was injected in the manner described above and the total number of typical writhes was determined over a period of 15 minutes.

[6] = system: SD male rats; conditions: p.o., given in Japan National Formulary, 6th Ed. (1982), 10080 min, cited from earlier work
[7] = system: SD male rats; assay: Analgesic activity, bradykinin-induced pain response; type: in vivo, rat (SD male); conditions: p.o.; for Safety margin (LD50 /ED50): Table 2, rats; for Analgesic activity ED50 / Saftety margin (LD50 /ED50): Table 4, rats
Procedure: (b) Bradykinin-induced pain response^3,4
A polyethylene tube was inserted into a common right carotid artery of SD male rats (250 to 350 g) and 0.5 microngram per 0.1 ml of bradykinin was injected into the artery through said tube. Response induced by bradykinin such as flexin of the right forelimb, dextro-rotation of the head and rearing were considered as being indices of pain response, and the analgesic action of each test compound was determined by observing its inhibition of responses such symptoms.

[8] = system: ddy male mice; conditions: p.o., given in Japan National Formulary, 6th Ed. (1982), 4320 min, cited from earlier work
[9] = rats, read-out: effective dose ED for reducing the fever by more than 1° C. at the peak of its activity
[10] = Table 5, rats, read-out: ED (effective dose for reducing the fever by more than 1° C. when the compound action is at the peak)

Compound `Cn1cnc2c1c(=O)n(CCCN1CCN(c3ccc(Cl)c(Cl)c3)CC1)c(=O)n2C` [Compound A', 1-(3-(4-(3,4-dichlorophenyl)piperazinyl-(1))-n-propyl)theobromine] has an ED30 ([1]; Table 7, rats) of 25 mg/kg and an ED (fever reduced by more than 1 degC) [2, 9] of 40 mg/kg.

`Cn1c(=O)c2c(ncn2CCCCN2CCN(c3ccc(F)cc3)CC2)n(C)c1=O` [Compound A] showed an LD50 at 168 h ([3]; Table 2, rats) of 353 to 500 mg/kg, an LD50 at 72 h ([4]; Table 1, mice) of 344 mg/kg and an ED30 ([1]; Table 6, rats) of 10 mg/kg. It also gave an ED (fever reduced by more than 1 degC) [2, 10] of 10 mg/kg.

`Cc1cccc(N2CCN(CCn3c(=O)c4c(ncn4C)n(C)c3=O)CC2)c1C` [Compound B', 1-(2-(4-(2,3-dimethylphenyl)piperazinyl-(1))-ethyl)theobromine.2HCl] showed an LD50 at 168 h ([3]; Table 4, rats) of at least 2000 mg/kg and an LD50 at 72 h ([4]; Table 3, mice) of 600 mg/kg.

`Cn1c(=O)c2c(ncn2CCCCCN2CCN(c3ccc(Cl)cc3)CC2)n(C)c1=O` [Compound B] gave an LD50 at 168 h ([3]; Table 2, rats) of 353 to 500 mg/kg, an LD50 at 72 h ([4]; Table 1, mice) of 704 mg/kg and an ED30 ([1]; Table 6, rats) of 50 mg/kg. For the same compound, the ED (fever reduced by more than 1 degC) [2, 10] was 40 mg/kg.

With `Cn1cnc2c1c(=O)n(CCCN1CCN(c3ccccc3Cl)CC1)c(=O)n2C` [Compound C', 1-(3-(4-o-chlorophenylpiperazinyl-(1))-n-propyl)theobromine.2HCl] the LD50 at 72 h ([4]; Table 3, mice) was 200 mg/kg and the ED30 ([1]; Table 7, rats) was 10 mg/kg.

With `Cc1ccc(N2CCN(CCCn3cnc4c3c(=O)n(C)c(=O)n4C)CC2)cc1C` [Compound C] the LD50 at 168 h ([3]; Table 2, rats) was 770 mg/kg, the LD50 at 72 h ([4]; Table 1, mice) was at least 800 mg/kg and the ED (fever reduced by more than 1 degC) [2, 10] was 10 mg/kg.

`COc1ccccc1N1CCN(CCCCn2c(=O)c3c(ncn3C)n(C)c2=O)CC1` [Compound D', 1-(4-(4-o-methoxyphenylpiperazinyl-(1))-n-butyl)theobromine.2HCl] gave an LD50 at 72 h ([4]; Table 3, mice) of 400 to 800 mg/kg.

For `Cn1c(=O)c2c(ncn2CCCCN2CCN(c3ccc(Cl)cc3)CC2)n(C)c1=O` [Compound D], the LD50 at 168 h ([3]; Table 2, rats) was 505 mg/kg, the LD50 at 72 h ([4]; Table 1, mice) was 575 mg/kg and the ED30 ([1]; Table 6, rats) was 25 mg/kg. The ED (fever reduced by more than 1 degC) [2, 10] was 40 mg/kg.

`Cn1cnc2c1c(=O)n(CCCCN1CCN(c3ccc(F)cc3)CC1)c(=O)n2C` [Compound E', 1-(4-(4-p-fluoropenylpiperazinyl-(1))-n-butyl)theobromine.2HCl] gave an LD50 at 72 h ([4]; Table 3, mice) of 200 mg/kg and an ED30 ([1]; Table 7, rats) of 25 mg/kg.

Compound `Cn1cnc2c1c(=O)n(CCCCN1CCN(c3ccc(Cl)c(Cl)c3)CC1)c(=O)n2C` [Compound F', 1-(4-(4-(3,4-dichlorophenyl)piperazinyl-(1))-n-butyl)theobromine.2HCl] has an LD50 at 72 h ([4]; Table 3, mice) of 400 to 800 mg/kg.

`Cn1c(=O)c2c(ncn2CCCCCN2CCN(c3cccc(C(F)(F)F)c3)CC2)n(C)c1=O` [Compound F] showed an LD50 at 168 h ([3]; Table 2, rats) of 660 mg/kg, an LD50 at 72 h ([4]; Table 1, mice) of at least 800 mg/kg and an ED30 ([1]; Table 6, rats) of 25 mg/kg. For the same compound, the ED (fever reduced by more than 1 degC) [2, 10] was 10 mg/kg.

With `Cc1cccc(N2CCN(CCCCCn3c(=O)c4c(ncn4C)n(C)c3=O)CC2)c1` [Compound G', 1-(5-(4-m-methylphenylpiperazinyl-(1))-n-pentyl)theobromine.2HCl] the “Safety margin (LD50 /ED50)” value ([5]; Table 3, mice) was 22, the LD50 at 72 h ([4]; Table 3, mice) was 300 mg/kg and the ED30 ([1]; Table 7, rats) was 25 mg/kg.

In the case of `COc1cc(C)nc(-n2nc(C)cc2OC)n1` [Control drug I, 4-methoxy-2-(5-methoxy-3-methylpyrazol-1-yl)-6-methylpyrimidine], the “Acute toxicity LD50” value ([6]; Table 2, rats) is listed as 526 mg/kg, the “Acute toxicity LD50” value ([6]; Table 4, rats) is listed as 526 mg/kg and the “Safety margin (LD50 /ED50)” value [7] is listed as at most 3. For the same compound, the “Analgesic activity ED50” value [7] was at least 160 mg/kg, the “Saftety margin (LD50 /ED50)” value [7] was at most 3 and the “Safety margin (LD50 /ED50)” value ([5]; Table 1, mice) was 4.3. The “Safety margin (LD50 /ED50)” value ([5]; Table 3, mice) was 4.3, the “Analgesic activity ED50” value ([5]; Table 3, mice) was 240 mg/kg and the “Acute toxicity LD50” value ([8]; Table 1, mice) was 1,022 mg/kg. The “Acute toxicity LD50” value ([8]; Table 3, mice) was 1022 mg/kg, the ED (fever reduced by more than 1 degC) [2, 9] was 40 mg/kg and the ED (fever reduced by more than 1 degC) [2, 10] was 40 mg/kg.

With `O=C(Cn1c(=O)sc2ccc(Cl)cc21)N1CCN(CCO)CC1` [Control drug II, 4-((5-chloro-2-oxo-3(2H)-benzothiazolyl)acetyl)-1-piperazineethanol] the “Safety margin (LD50 /ED50)” value [7] was at most 23, the “Analgesic activity ED50” value [7] was at least 160 mg/kg and the “Saftety margin (LD50 /ED50)” value [7] was at most 23. For the same compound, the “Safety margin (LD50 /ED50)” value ([5]; Table 1, mice) was 8.5, the “Safety margin (LD50 /ED50)” value ([5]; Table 3, mice) was 8.5 and the “Analgesic activity ED50” value ([5]; Table 3, mice) was 66 mg/kg. For the same compound, the “Acute toxicity LD50” value ([8]; Table 1, mice) was 664 mg/kg, the “Acute toxicity LD50” value ([8]; Table 3, mice) was 564 mg/kg and the ED (fever reduced by more than 1 degC) [2, 9] was 40 mg/kg. It also gave an ED (fever reduced by more than 1 degC) [2, 10] of 40 mg/kg.

For `OC(CN1CCCCC1)c1cc(-c2ccccc2)on1` (centres unmarked) [Control drug III, 3-(1-hydroxy-2-piperadinoethyl)-5-phenyl-isoxazole], the “Acute toxicity LD50” value ([6]; Table 2, rats) is listed as 1,978 mg/kg, the “Acute toxicity LD50” value ([6]; Table 4, rats) is listed as 1,978 mg/kg and the “Safety margin (LD50 /ED50)” value [7] is listed as 12. For the same compound, the “Saftety margin (LD50 /ED50)” value [7] was 12, the “Safety margin (LD50 /ED50)” value ([5]; Table 1, mice) was 5.1 and the “Safety margin (LD50 /ED50)” value ([5]; Table 3, mice) was 5.1. The “Analgesic activity ED50” value ([5]; Table 3, mice) was 120 mg/kg, the “Acute toxicity LD50” value ([8]; Table 1, mice) was 612 mg/kg and the “Acute toxicity LD50” value ([8]; Table 3, mice) was 612 mg/kg. For the same compound, the ED (fever reduced by more than 1 degC) [2, 9] was 160 mg/kg and the ED (fever reduced by more than 1 degC) [2, 10] was 160 mg/kg.

From US4599337A, “Antiphlogistic/antipyretic/analgesic agents containing theobromine or theophylline derivatives as active ingredient” (Eisai Co., Ltd., priority 1985, dated 1986)
